In US20170014524A1, “AURISTATIN-ANTIBODY CONJUGATES AND USES THEREOF” (The California Institute for Biomedical Research, priority 2015, published 2017):
Where a SMILES comes first, the peptide text is derived from it. [ ]: non-standard residue; d: D form. The star is where a group is joined. Dolaproine = CO[C@@H]([C@@H]1CCCN1)[C@@H](C)C(=O)O; Dil = CC[C@H](C)[C@H](NC)[C@@H](CC(=O)O)OC; Doe = c1ccc(C[C@H](N*)c2nccs2)cc1; NMeV = CN[C@H](C(=O)O)C(C)C

Experiments:
Type in all cases: cell-based
Details in all cases: 600 nM to 30 pM, 4 days at 37° C.
Ramos (CXCR4+) cells = assay: Cytotoxicity (CellTiter-Glo cell viability, 4 days) in Ramos cells
Method: (§1) Cell viabilities were measured by addition of CellTiter-Glo (Promega) and the luminescent signals were read by EnVision plate reader.
(§2) The following illustrative examples are representative of embodiments of the compositions and methods described herein and are not meant to be limiting in any way. All cell lines were purchased from ATCC unless otherwise stated. Ramos, Jurkat, OPM-2 cells were cultured in RPMI with 10% FBS and 100 U/mL Penicillin Streptomycin. MDA-MB-231 cells were cultured in DMEM (high glucose) with 10% FBS, 1 mM sodium pyruvate, and 100 U/mL Penicillin Streptomycin. SKBR-3 cells were cultured in DMEM with 10% FBS and 1x Antibiotic-Antimycotic (100 U/mL Penicillin Streptomycin, 0.25 μg/mL Fungizone). […]
(§3) Ramos (CXCR4+), Jurkat (CXCR4+), and MDA-MB-231 (CXCR4−) cells were treated with either small molecule drugs, anti-CXCR4 (SEQ ID NOS: 3, 4), or anti-CXCR4-auristatin conjugates with concentrations ranging from 600 nM to 30 pM for 4 days at 37° C. Cell viabilities were measured by addition of CellTiter-Glo (Promega) and the luminescent signals were read by EnVision plate reader.
(§4) Briefly, 1000 cells/well were seeded in a 384-well plate (45 uL/well with their corresponding media) and incubated at 37° C. overnight. […] Plates were shaken and incubated for at least 10 min before the generated luminescent signals were read using PerkinElmer EnVision Multilabel Reader.

[1] = system: MDA-MB-231 (CXCR4−) cells; assay: Cytotoxicity (CellTiter-Glo cell viability, 4 days) in MDA-MB-231 cells
Method: as §1, §2, §3, §4

Jurkat (CXCR4+) cells = assay: Cytotoxicity (CellTiter-Glo cell viability, 4 days) in Jurkat cells
Method: as §1, §2, §3, §4

In the case of `CC[C@H](C)[C@@H]([C@@H](CC(=O)N1CCC[C@H]1[C@H](OC)[C@@H](C)C(=O)N[C@@H](Cc1ccccc1)c1nccs1)OC)N(C)C(=O)[C@@H](NC(=O)[C@@H](NC)C(C)C)C(C)C` [MMAD, monomethyl auristatin D] (H-[NMeV]V[Dil][Dolaproine]-Doe), the IC50 (Ramos (CXCR4+) cells) is reported as 1.4 nM, the IC50 [1] is reported as 5.2 nM and the IC50 (Jurkat (CXCR4+) cells) is reported as 2.8 nM.
